Our source for the melting point values is a melting point compilation (Tetko et al.; mined from patent text by program, amines drawn as free bases though some values may be those of a salt).

Broadly, the melting point is the temperature, or range, at which the solid turns liquid.

Consider `CC(=O)OC1CCc2cc(N(C(C)=O)S(C)(=O)=O)c(Oc3ccccc3)cc21` (stereo not given), for which the melting point worked out at 70 °C.

In the case of `CCCC(=O)c1cc(-c2ccccc2)ns1`, the melting point was 70 °C.

In turn, `CSCc1cn(C)c2ccc(Cl)cc2c1=O` yielded a melting point of 148 to 150 °C.

`CC1CC(C)CN(c2nccc(Oc3ccc(NC(=O)c4cc(F)cc(N5CCOCC5)c4)c4ccccc34)n2)C1` (stereo not given) yielded a melting point of 102 to 104 °C.

The compound `CCCCCCNC(=N)NC#N` yielded a melting point of 103 to 105 °C.

`O[C@H](COc1cccc2[nH]ccc12)CN1CC=C(c2c[nH]c3ccc(F)cc23)CC1` displayed a melting point of 95 to 100 °C.

Consider `O=C(c1cccc(O)c1)c1sc2cc(O)ccc2c1-c1ccccc1`, for which the melting point was determined as 202 °C.

Take `Cc1ccc(Br)cc1NS(=O)(=O)c1ccccc1C(=O)O`: the melting point was 274 to 276 °C.

`CCCCCCCCCCCCCCCCCCOC(=O)CCC1CCCCC1(c1ccc(O)c(C(C)(C)C)c1)c1ccc(O)c(C(C)(C)C)c1` (stereo not given) showed a melting point of 155 °C.

As to `O=C(N[C@H]1CC[C@H](CCN2CCC(c3cccc4c3CCO4)CC2)CC1)c1ccc(F)cc1`, the melting point came to 213 °C.

As for `Cc1ccc(-c2[nH]c(-c3ccccc3)nc2C(=O)Nc2nc3ccccc3s2)cc1`, the melting point is 269 to 270 °C.

In the case of `CCOC(=O)CCCn1c(=O)n(CCN2CCN(c3ccccc3OC)CC2)c(=O)c2cscc21`, the melting point was 108 to 110 °C.

`O=C(O)c1ccc2oc3ccncc3c(=O)c2c1` showed a melting point above 300 °C.

In the case of `O=C1C(=CO)c2ccccc2N1c1cccc(Cl)c1`, the melting point was in the range of 175 to 178 °C.

Take `CS(=O)(=O)c1cccc(NC(=O)c2cnn3c(C(F)F)cc(-c4ccc(Cl)c(Cl)c4)nc23)c1`: the melting point stood at 262 °C.

The compound `COC(=O)c1ccc(-c2ccc3cc(OCCCCC=C=O)c(C45CC6CC(CC(C6)C4)C5)cc3c2)cc1` displayed a melting point of 209 to 210 °C.

With `CC(=O)N[C@@H](CSC(=O)C(C)(C)C)C(=O)NCCSC(C)=O`, the melting point lay in the range of 92 to 94 °C.

`CC(C)C1N(C)CCCN1C(=O)NC(C)C1CC(N=C=O)CC(C)(C)C1` (stereo not given) had a melting point of 180 to 192 °C.

As for `CNC(=NC#N)NCc1c(C)cc(C)c(CNC(=NC#N)NC)c1C`, the melting point was in the range of 270 to 272 °C.

For the compound `CCOC(=O)N1CCN(C(=O)/C=C/S(=O)(=O)c2ccccc2)CC1`, the melting point lay within 116 to 117 °C.

For `Cc1c(N)nc(Cl)nc1Cl`, the melting point lay within 193 to 194 °C.

Compound `CCCCCCCCCCCCCCCCCCOc1ccc(O)c(C(=O)N(CC(=O)O)CC(=O)O)c1` yielded a melting point of 128 to 132 °C.

The compound `O=C(N1CCCC1)N1Cc2c(C3=NCCO3)ncn2-c2ccccc21` gave a melting point of 217 to 220 °C.

`O=C(OCCCI)C(=C1NCCCS1)[N+](=O)[O-]`: the melting point was in the range of 58 to 60 °C.

For `N#CC1(N)CCc2cccc(Cl)c2C1` (stereo not given), the melting point is 67 to 69 °C.

As for `CCCCc1ccc(C(=O)NC(C)(C(N)=O)C(C)C)nc1` (stereo not given), the melting point fell in the range of 83 to 86 °C.

On to `COC(=O)CCC12CCC(=O)N1C(=O)CC2`, for which the melting point fell in the range of 110 to 112 °C.

For the compound `O=[N+]([O-])c1cccc(COc2cccc3cccnc23)c1`, the melting point was in the range of 98 to 99 °C.

Take `COc1ccc(F)c2c1C=C(C#N)CO2`: the melting point lay within 133 to 135 °C.

For the compound `COc1cc(C(=O)O)ccc1Cc1cccc2ccc(CCCC(=O)N(C)C)cc12`, the melting point fell in the range of 231 to 232 °C.

In turn, `O=[N+]([O-])c1ccc(Cl)c(C2OCCO2)c1` gave a melting point of 78 to 81 °C.

In turn, `Oc1cc2ccc(CCCCCl)cc2cc1O` displayed a melting point of 54 to 59 °C.

In turn, `COc1ccc(C(=O)NCCCSc2nnnn2C)cc1` yielded a melting point of 118 to 122 °C.

`CCc1cccc(Cn2[nH]c(N)cc2=O)c1` came in with a melting point of 73 °C.

As for `C[C@H](NC(=O)C[C@](O)(CC(C)(C)O)c1ccccc1)c1ccc(Br)cc1`, the melting point lay in the range of 150 to 152 °C.

For the compound `CCOCc1nc2c(N)nc(C)c(C)c2n1NC1CCN(S(C)(=O)=O)CC1`, the melting point fell in the range of 127 to 131 °C.

The compound `CC(C(=O)O)c1ccc2c(c1)CCc1cccnc1S2` (stereo not given) yielded a melting point of 181 to 183 °C.

As for `NC(=O)CCc1ccnc(-c2nc(=O)c3ccccc3s2)c1`, the melting point was 237 to 240 °C.

On to `CCOC(=O)C(F)(F)c1ccc(NC(=O)c2ccc3c(c2)C(C)(C)CCC3(C)C)cc1`, for which the melting point amounted to 183 °C.

For `CCOC(=O)c1cn(C)c2cc(CC)ccc2c1=O`, the melting point was 92 to 94 °C.

On to `CCOc1ccc(C2(c3ccc(OC)cc3)CC2(Cl)Cl)cc1` (stereo not given), for which the melting point lay in the range of 114 to 117 °C.

Consider `O=C1CCCC1c1ccc(Cl)cc1` (stereo not given), for which the melting point fell in the range of 154 to 155 °C.

The compound `c1ccc2c(c1)CN(Cc1nc3ccccc3[nH]1)C2` registered a melting point of 172 to 174 °C.

In turn, `Nc1cc(Br)nc(CO)c1` came in with a melting point of 144 to 145 °C.

For the compound `Cc1cc(C)c(NC(=O)N(Cc2ccc3c(c2)-c2ccccc2-3)C2CCCCCC2)c(C)c1`, the melting point fell in the range of 123 to 124 °C.

For `CCCc1nc(C(C)(O)CC)c(C#N)[nH]1` (stereo not given), the melting point lay in the range of 157 to 159 °C.

`CN(C(=O)CN(C(=O)CNC(=O)Nc1cccc(Cc2nnn[nH]2)c1)c1ccccc1)c1ccccc1` showed a melting point of 206 °C.

For `CCCc1nc(NCc2ccco2)nc(Nc2cccc(C(F)(F)F)c2)n1`, the melting point lay within 110 to 112 °C.

Compound `C=CCN1C2CCC1C1CCC2N1C(c1ccc(C(=O)NC2CCCCC2)cc1)c1cccc(OC)c1` (stereo not given) showed a melting point of 58 to 60 °C.

As for `CCc1c(C(=O)C(N)=O)c2c(NCC(=O)OC)cccc2n1Cc1ccccc1`, the melting point is 188 to 193 °C.

In the case of `O=C(O)c1csc(-c2ccccc2O)n1`, the melting point was in the range of 268 to 269 °C.

For the compound `CCCCOc1nc(N)c2nc(OC)n(CCS(=O)(=O)c3cccc(CC(=O)OC)c3)c2n1`, the melting point lay within 246 to 247 °C.

Take `COc1ccccc1-c1c(=O)[nH]c2cc(Cl)c(Cl)cc2[n+]1[O-]`: the melting point fell in the range of 239 to 241 °C.

In the case of `CCCc1c(C#N)ccc(NC(=NC#N)Nc2cccc(Cl)c2Cl)c1O`, the melting point is 143 to 147 °C.

For `CN1C(=O)CC[C@]2(C)c3ccc(-c4cccc(Cl)c4)cc3CC[C@@H]12`, the melting point was 158 to 165 °C.

`CN(Cc1ccc(NC(=O)C2=Cc3cc(-c4cc5ccccc5o4)ccc3S(=O)(=O)CC2)cc1)C1CCOCC1` came in with a melting point of 234 to 235 °C.

On to `Clc1ccc2nccc(Cl)c2c1`, for which the melting point lay in the range of 101 to 104 °C.

`CC(C)COc1ccc(C=CC(=O)O)cc1`: the melting point lay within 161 to 164 °C.

In the case of `CC(C)SN1N=C(c2cccc([N+](=O)[O-])c2)C(SC(C)C)(SC(C)C)C1=O`, the melting point was in the range of 73 to 74 °C.

For the compound `COc1cccc(Cn2c(C(=O)O)c(-c3ccc(C(=O)NC4CC4)cc3)c3ccccc32)c1`, the melting point was found to be 237 °C.

Regarding `O=c1n(-c2ccc(Cl)cc2)c(=O)n(SC(Cl)(Cl)Cl)n1SC(Cl)(Cl)Cl`, the melting point came to 169 °C.

`Cc1cccc2ncc(C(=O)Nc3ccc(F)cc3)c(=O)n12` registered a melting point of 202 to 204 °C.

`CCC1=Nc2c(C)nn(C)c2C2=NCC(C)N12` (stereo not given) showed a melting point of 105 to 107 °C.

With `O=C(N1CCc2ccc(S(=O)(=O)Cl)cc2C1)C(F)(F)F`, the melting point is 104 to 105 °C.

As for `COC(C)Cn1c(C)nc2cnc3ccccc3c21` (stereo not given), the melting point lay within 55 to 57 °C.

As to `CCC(C)(C)NC(Nc1ccc2c(c1)OCO2)=C(C#N)S(C)(=O)=O`, the melting point lay in the range of 86 to 88 °C.

On to `COC1CCN2C(=O)c3cccc(NC(=O)Nc4ccccn4)c3C2C1` (stereo not given), for which the melting point is 166 to 168 °C.

Compound `Cc1cc(C2=NOC(c3cc(Cl)cc(Cl)c3)(C(F)(F)F)C2)ccc1C(=O)Nc1ncc(Br)cn1` (stereo not given) yielded a melting point of 178 to 181 °C.

Regarding `N#Cc1coc2c(Cl)cc(Cl)cc2c1=O`, the melting point is 150 °C.

For the compound `C=CCC(C#N)(C#N)Cc1ccc(Br)cc1`, the melting point worked out at 61.7 °C.

As to `CCCCOc1ccc(/C=C/c2nc3c([nH]2)c(=O)n(CC)c(=O)n3CC)cc1`, the melting point was in the range of 258 to 261 °C.

`O=c1oc2ccccc2s1` yielded a melting point of 25.8 to 27 °C.

In the case of `Cc1ccc(Nc2c(N)cc(C(=O)O)cc2S(N)(=O)=O)cc1`, the melting point is 249 to 252 °C.

The compound `Cc1cc([N+](=O)[O-])cc2c1S(=O)C=N2` (stereo not given) gave a melting point above 250 °C.

Compound `CC(=O)O[C@@H]1[C@@H](OC(C)=O)[C@H](C)O[C@@H](OC[C@H]2O[C@H](Br)[C@H](OC(C)=O)[C@@H](OC(C)=O)[C@@H]2OC(C)=O)[C@@H]1OC(C)=O` yielded a melting point of 120 to 125 °C.

With `c1ccc(CN2CCc3[nH]c4c(-c5ccccc5)cccc4c3CC2)cc1`, the melting point lay within 78 to 79 °C.

The compound `CCN1CCN(C(=O)OC2C3=C(SCCS3)C(=O)N2c2ccc(Cl)cn2)CC1` (stereo not given) gave a melting point of 140 °C.

Regarding `CCOC(=O)c1cnc2cc(CC)ccc2c1O`, the melting point fell in the range of 257 to 260 °C.

`Cc1csc(Nc2cc3ccccc3cn2)n1`: the melting point fell in the range of 212 to 215 °C.

`COc1ccc(-c2c3c(cc4ccc(O)cc24)-c2ccc(O)cc2CO3)cc1OC` displayed a melting point of 245 to 248 °C.

In turn, `CCNC(=S)N1CCN(c2ccc3ccccc3n2)CC1` yielded a melting point of 193 to 195 °C.

`COc1ccc(-c2[nH]nc3c2C(=O)c2c(NC(=O)NN4CCOCC4)cccc2-3)cc1` yielded a melting point of 290 to 291 °C.

Regarding `CC(=O)N1CCC(C(=O)N2CC[C@@H](N(C)C(=O)c3ccc(C(F)(F)F)cc3)[C@H](c3ccc(Cl)c(Cl)c3)C2)CC1`, the melting point turned out to be 122 °C.

The compound `COc1nc(C)cnc1NS(=O)(=O)c1ccccc1-c1ccc(CC(C)C)c([N+](=O)[O-])c1` yielded a melting point of 114 to 115 °C.

`Nc1n[nH]c2ccc(Br)cc12` yielded a melting point of 165 to 175 °C.

Compound `CSc1ncc2ccc(=O)[nH]c2n1` showed a melting point of 270 to 271 °C.

For `COc1ccc(C(=O)Nc2ccccc2)cc1NCc1cc(Cl)cc(Cl)c1`, the melting point fell in the range of 164 to 165 °C.

In the case of `COc1ccccc1[C@@]1(O)[C@H](O)CC(c2ccccc2)(c2ccccc2)[C@@H]2CN(C(=O)Cc3c[nH]c4ccccc34)C[C@@H]21` (racemic), the melting point was determined as 266 °C.

`COc1c(F)cc2[nH]c(=O)c(=O)[nH]c2c1[N+](=O)[O-]` showed a melting point of 290 to 292 °C.

Take `CCc1c(OC)nc2nc(C(N)=O)cn2c1C`: the melting point was in the range of 256 to 259 °C.
